Like-named read-outs stand apart in the source and are kept apart here.
Key:
FKBP-cSnap and FRB-nSnap = assay type: biochemical
DOR [1] = assay type: cell-based; details: 10 µM compound, off-DNA
DOR [2] = details: cited from earlier work

CCC(C)(C)C(=O)C(=O)N1CCCC[C@H]1C(=O)O[C@H](CCc1ccc(OC)c(OC)c1)c1cccc(OCC(=O)O)c1 [SLF, synthetic ligand for FKBP]
protein labeling with BG-FAM (SnapTag reconstitution) (FKBP-cSnap and FRB-nSnap): did not induce protein labeling

Met-Enk-RF: a β-arrestin-biased DOR agonist peptide; strong G-protein bias for the MOR (YGGFMRF; Met-enkephalin-Arg-Phe; UniProt P01210 261-267, looked up)
biotinylation of the DOR (β-arrestin activation) in gel-based assay (DOR [1]): markedly increased the biotinylation level

Dmt-Pro-Phe-Phe
Ki (DOR [2]; high-affinity parental peptide): ~28 nM

Tyr-Tic
Ki (DOR [2]; low-affinity parental peptide): ~240 nM
